Key:
CB1 = CB1 (UniProt P21554); assay: CB1 radioligand binding assay; parameters: species or system human; conditions: read-out: Ki (CB1)
Procedure, shortened: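 Radioligand binding to human CB1 stably expressed in CHO cells and to mouse brain membrane CB1 gave binding constants. For selected compounds, antagonism of CP55940-induced CB1 activation was measured in MPXNomad-CB1 HEK293 cells via cAMPNomad (cAMP) and ArresNomad (β-arrestin) fluorescent biosensors.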

Brain/CB1 = target: T1, Brain/CB1 (Mus musculus, UniProt P47746); assay: Functional GTPγS binding, Brain/CB1; format: biochemical
T1 construct: from tissue; host or cells: mouse brain membranes
T1 sequence (P47746 whole entry): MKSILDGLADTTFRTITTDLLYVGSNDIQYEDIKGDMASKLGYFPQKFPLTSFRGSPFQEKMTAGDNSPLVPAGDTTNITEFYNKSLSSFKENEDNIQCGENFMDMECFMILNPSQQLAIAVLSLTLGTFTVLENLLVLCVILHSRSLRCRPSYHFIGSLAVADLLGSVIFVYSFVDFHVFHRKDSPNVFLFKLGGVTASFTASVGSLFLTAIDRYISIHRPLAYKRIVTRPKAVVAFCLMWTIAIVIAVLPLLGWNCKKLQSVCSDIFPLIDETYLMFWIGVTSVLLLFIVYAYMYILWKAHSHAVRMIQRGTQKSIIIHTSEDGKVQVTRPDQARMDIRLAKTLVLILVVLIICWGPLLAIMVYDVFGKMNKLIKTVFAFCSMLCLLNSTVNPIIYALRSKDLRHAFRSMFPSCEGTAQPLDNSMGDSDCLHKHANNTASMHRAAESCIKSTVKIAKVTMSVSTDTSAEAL

iNOS = iNOS (Mus musculus, UniProt P29477); assay: Inducible NOS biochemical assay; conditions: for % Response (Inducible NOS): Mouse, 10 μM, criteria ≥ ±50%, preliminary data
Source text: Biochemical assay results are presented as the percent inhibition of specific binding or activity (iNOS, CAMP, beta arrestin).

SMILES | Ki (CB1) [nM] | IC50 (Brain/CB1) [nM] | iNOS inhibition % Response (iNOS) [%] | % Response (Inducible NOS) (iNOS) [%]
C/C(N)=N\C(=N\S(=O)(=O)c1ccc(Cl)cc1)N1CCC(c2ccccc2)C(c2ccc(Cl)cc2)=N1 (centres unmarked) [Compound 10a, (Z)—N—((E)-1-aminoethylidene)-3-(4-chlorophenyl)-N′-((4-chlorophenyl)sulfonyl)-4-phenyl-5,6-dihydropyridazine-1 (4H)-carboximidamide] | 76 | 138 | 39 | –
C/C(N)=N\C(=N\S(=O)(=O)c1ccc(OC(F)(F)F)cc1)N1CCC(c2ccccc2)C(c2ccc(Cl)cc2)=N1 (centres unmarked) [Compound 10d, (Z)—N—((E)-1-aminoethylidene)-3-(4-chlorophenyl)-4-phenyl-N′-((4-(trifluoromethoxy)phenyl)sulfonyl)-5,6-dihydropyridazine-1 (4H)-carboximidamide] | 56.5 | 104 | 55 | –
C/C(N)=N\C(=N\S(=O)(=O)c1ccc(C#N)cc1)N1CCC(c2ccccc2)C(c2ccc(Cl)cc2)=N1 (centres unmarked) [Compound 10e, (Z)—N—((E)-1-aminoethylidene)-3-(4-chlorophenyl)-N′-((4-cyanophenyl)sulfonyl)-4-phenyl-5,6-dihydropyridazine-1 (4H)-carboximidamide] | 77 | 338 | 43 | –
CC(C)/C(N)=N\C(=N\S(=O)(=O)c1ccc(C(F)(F)F)cc1)N1CCC(c2ccccc2)C(c2ccc(Cl)cc2)=N1 (centres unmarked) [Compound 10m, (Z)—N—((E)-1-amino-2-methylpropylidene)-3-(4-chlorophenyl)-4-phenyl-N′-((4-(trifluoromethyl)phenyl)sulfonyl)-5,6-dihydropyridazine-1 (4H)-carboximidamide] | 23 | 151 | 55 | –
N/C(=N\C(=N\S(=O)(=O)c1ccc(C(F)(F)F)cc1)N1CCC(c2ccccc2)C(c2ccc(Cl)cc2)=N1)C1CC1 (centres unmarked) [Compound 10n, (Z)—N—((Z)-amino (cyclopropyl)methylene)-3-(4-chlorophenyl)-4-phenyl-N′-((4-(trifluoromethyl)phenyl)sulfonyl)-5,6-dihydropyridazine-1 (4H)-carboximidamide] | 44 | 211 | 55 | –
N/C(=N/C(=N/S(=O)(=O)c1ccc(C(F)(F)F)cc1)N1CCC(c2ccccc2)C(c2ccc(Cl)cc2)=N1)c1ccccc1Cl (centres unmarked) [Compound 10s, (Z)—N—((E)-amino (2-chlorophenyl)methylene)-3-(4-chlorophenyl)-4-phenyl-N′-((4-(trifluoromethyl)phenyl)sulfonyl)-5,6-dihydropyridazine-1 (4H)-carboximidamide] | 20.5 | 19 | 24 | –
N/C(=N\C(=N\S(=O)(=O)c1ccc(C(F)(F)F)cc1)N1CCC(c2ccccc2)C(c2ccc(F)cc2)=N1)c1ccc(F)cc1F (centres unmarked) [Compound 10ze, (Z)—N—((Z)-amino (2,4-difluorophenyl)methylene)-3-(4-fluorophenyl)-4-phenyl-N′-((4-(trifluoromethyl)phenyl)sulfonyl)-5,6-dihydropyridazine-1 (4H)-carboximidamide] | 58.6 | 450 | – | –
N/C(=N\C(=N\S(=O)(=O)c1ccc(C(F)(F)F)cc1)N1CCC(c2ccccc2)C(c2ccc(F)cc2)=N1)c1ccccn1 (centres unmarked) [Compound 10zf, (Z)—N—((Z)-amino (pyridin-2-yl)methylene)-3-(4-fluorophenyl)-4-phenyl-N′-((4-(trifluoromethyl)phenyl)sulfonyl)-5,6-dihydropyridazine-1 (4H)-carboximidamide] | 41.7 | 209 | – | –
CS/C(N)=N\C(=N\S(=O)(=O)c1ccc(C(F)(F)F)cc1)N1CCC(c2ccccc2)C(c2ccc(Cl)cc2)=N1 (centres unmarked) [Compound 11b, methyl (Z)—N′—((Z)-(3-(4-chlorophenyl)-4-phenyl-5,6-dihydropyridazin-1 (4H)-yl)(((4-(trifluoromethyl)phenyl)sulfonyl)imino)methyl)carbamimidothioate] | 86.7 | 125 | 56 | –
CCS/C(N)=N\C(=N/S(=O)(=O)c1ccc(C(F)(F)F)cc1)N1CCC(c2ccccc2)C(c2ccc(Cl)cc2)=N1 (centres unmarked) [Compound 11i, ethyl (Z)—N′—((E)-(3-(4-chlorophenyl)-4-phenyl-5,6-dihydropyridazin-1 (4H)-yl)(((4-(trifluoromethyl)phenyl)sulfonyl)imino)methyl)carbamimidothioate] | 99.7 | 640 | 66 | –
CS/C(N)=N/C(=N/S(=O)(=O)c1ccc(C(F)(F)F)cc1)N1CCC(c2ccccc2)C(c2ccc(F)cc2)=N1 (centres unmarked) [Compound 11j, methyl (E)-N′—((Z)-(3-(4-fluorophenyl)-4-phenyl-5,6-dihydropyridazin-1 (4H)-yl)(((4-(trifluoromethyl)phenyl)sulfonyl)imino)methyl)carbamimidothioate] | 93 | > 1000 | – | –
C[Se]/C(N)=N\C(=N\S(=O)(=O)c1ccc(C(F)(F)F)cc1)N1CCC(c2ccccc2)C(c2ccc(Cl)cc2)=N1 (centres unmarked) [Compound 12b, methyl (Z)—N′—((Z)-(3-(4-chlorophenyl)-4-phenyl-5,6-dihydropyridazin-1 (4H)-yl)(((4-(trifluoromethyl)phenyl)sulfonyl)imino)methyl)carbamimidoselenoate] | 114 | – | 64 | –
C[Se]/C(N)=N\C(=N\S(=O)(=O)c1ccc(C(F)(F)F)cc1)N1CCC(c2ccccc2)C(c2ccc(Cl)cc2)=N1 (centres unmarked) [drawing 18] | – | – | – | 64

More lines, now with the values ahead:

Ki (CB1) [nM] | IC50 (Brain/CB1) [nM] | iNOS inhibition % Response (iNOS) [%] | % Response (Inducible NOS) (iNOS) [%] | SMILES
19.8 | 325 | – | – | N#Cc1ccc(S(=O)(=O)/N=C(/N=C2\CCCCN2)N2CCC(c3ccccc3)C(c3ccc(Cl)cc3)=N2)cc1 (centres unmarked) [Compound 13b, (Z)-3-(4-chlorophenyl)-N′-((4-cyanophenyl)sulfonyl)-4-phenyl-N—((E)-piperidin-2-ylidene)-5,6-dihydropyridazine-1 (4H)-carboximidamide]
34.1 | 287 | – | – | O=S(=O)(/N=C(/N=C1\CCCCN1)N1CCC(c2ccccc2)C(c2ccc(Cl)cc2)=N1)c1ccc2ccccc2c1 (centres unmarked) [Compound 15, (Z)-3-(4-chlorophenyl)-N′-(naphthalen-2-ylsulfonyl)-4-phenyl-N—((E)-piperidin-2-ylidene)-5,6-dihydropyridazine-1 (4H)-carboximidamide]
26 | 104 | 51 | – | O=S(=O)(/N=C(/N=C1\CCCCN1)N1CCC(c2ccccc2)C(c2ccc(Cl)cc2)=N1)c1ccc(C(F)(F)F)cc1 (centres unmarked) [Compound 16, (Z)-3-(4-chlorophenyl)-4-phenyl-N—((E)-piperidin-2-ylidene)-N′-((4-(trifluoromethyl)phenyl)sulfonyl)-5,6-dihydropyridazine-1 (4H)-carboximidamide]
4.37 | 8.1 | – | – | COC(=O)CN/C(=N/S(=O)(=O)c1ccc(C(F)(F)F)cc1)N1CCC(c2ccccc2)C(c2ccc(Cl)cc2)=N1 (centres unmarked) [Compound 23, methyl (Z)-((3-(4-chlorophenyl)-4-phenyl-5,6-dihydropyridazin-1 (4H)-yl)(((4-(trifluoromethyl)phenyl)sulfonyl)imino)methyl)glycinate]
10 | 33 | – | – | NC(=O)CN/C(=N/S(=O)(=O)c1ccc(C(F)(F)F)cc1)N1CCC(c2ccccc2)C(c2ccc(Cl)cc2)=N1 (centres unmarked) [Compound 24, (Z)-2-(3-(4-chlorophenyl)-4-phenyl-N′-((4-(trifluoromethyl)phenyl)sulfonyl)-1,4,5,6-tetrahydropyridazine-1-carboximidamido)acetamide]
41.1 | 207 | – | – | NC(=O)CN/C(=N/S(=O)(=O)c1ccc(Cl)cc1)N1CCC(c2ccccc2)C(c2ccc(Cl)cc2)=N1 (centres unmarked) [Compound 25, (Z)-2-(3-(4-chlorophenyl)-N′-((4-chlorophenyl)sulfonyl)-4-phenyl-1,4,5,6-tetrahydropyridazine-1-carboximidamido)acetamide]
84 | > 1000 | – | – | C/C(N)=N\C(=N\S(=O)(=O)c1ccc(C)cc1)N1CCC(c2ccccc2)C(c2ccc(Cl)cc2)=N1 (centres unmarked) [Compound 101, (Z)—N—((E)-1-aminoethylidene)-3-(4-chlorophenyl)-4-phenyl-N′-tosyl-5,6-dihydropyridazine-1 (4H)-carboximidamide]
– | – | – | 64 | C/C(N)=N\C(=N\S(=O)(=O)c1ccc(C(F)(F)F)cc1)N1CCC(c2ccccc2)C(c2ccc(Cl)cc2)=N1 (centres unmarked) [drawing 16]
– | – | – | 56 | CS/C(N)=N\C(=N\S(=O)(=O)c1ccc(C(F)(F)F)cc1)N1CCC(c2ccccc2)C(c2ccc(Cl)cc2)=N1 (centres unmarked) [drawing 17]

Reference: patent US20250197359A1, “CANNABINOID RECEPTOR MODULATING COMPOUNDS” (The U.S.A., as Represented by the Secretary, Department of …, priority 2022, published 2025)
